US20020198510A1, “Method for nasal application of a medicinal substance” (priority 2001, published 2002)
“Also recorded” adds a separate entry of the source.

Experiment: Evans Blue Dye distribution after administration into the nose of mice
Format: in vivo
Parameters: key to Dye in Stomach / Dye in Lung: -: no dye is present; traces: minimal amounts are present when examined with the unaided eye but that do not clearly show on photographs; yes: dye is clearly visible; +: dye is clearly visible; ++: heavy dye presence
Settings: for Dye in Oral Cavity / Dye in Stomach / Dye in Esophagus Lower / Dye in Esophagus Upper / Dye in Larynx / Dye in Nasal Cavity / Dye in Nose Skin / Dye in Trachea Upper / Dye in Lung / Dye in Trachea Lower / Dye in Intestine: 60 min to sacrifice
Procedure: To show the distribution of liquid administered through the nose, Evans Blue Dye (0.3%) was administered through a micropipette tip into the nose of mice and chinchillas at various doses, at various levels of sedation or anesthesia, and with the animals in various positions.

[1] = Dye 30 μl, 1 drop/5 sec interval, Upright/Not held, anesthesia 200 μl (heavy)
[2] = Dye 30 μl, 2 μl/nare at 5 min interval, Supine/Supine, anesthesia 200 μl (Mod*)
[3] = Dye 30 μl, 2 μl/nare at 5 min interval, Supine/Supine, anesthesia 200 μl (heavy)
[4] = Dye 30 μl, 2 μl/nare at 5 min interval, Supine/Supine, anesthesia 350 μl (heavy)
[5] = Dye 30 μl, 2 μl/nare at 5 min interval, Supine/Supine, anesthesia 400 μl (heavy)
[6] = Dye 30 μl, 5 μl/nare at 10 min interval, Supine/Supine, anesthesia 200 μl (heavy)
[7] = Dye 40 μl single dose, Upright/Not held, anesthesia 200 μl (heavy)
[8] = Dye 40 μl, 2 μl/nare at 5 min interval, Supine/Supine, anesthesia 200 μl (heavy)
[9] = Dye 50 μl single dose, Upright/Not held, 0 μl (Alert)
[10] = Dye 50 μl single dose, Upright/Not held, anesthesia 120 μl (Mod)
[11] = Dye 50 μl single dose, Upright/Not held, anesthesia 200 μl (heavy)
[12] = Dye 50 μl, 5 μl/nare at 30 sec interval, Upright/Not held, anesthesia 120 μl (Mod)

Cc1cc(-c2ccc(/N=N/c3ccc4c(S(=O)(=O)[O-])cc(S(=O)(=O)[O-])c(N)c4c3O)c(C)c2)ccc1/N=N/c1ccc2c(S(=O)(=O)[O-])cc(S(=O)(=O)[O-])c(N)c2c1O.[Na+].[Na+].[Na+].[Na+] [Dye, Evans Blue Dye]
Dye in Oral Cavity [1]: Yes
Dye in Stomach [1]: +
Dye in Esophagus Lower [2]: Yes/Yes
Dye in Esophagus Upper [2]: Yes/Yes
Dye in Larynx [2]: Yes
Dye in Nasal Cavity [2]: Yes
Dye in Nose Skin [2]: Yes
Dye in Oral Cavity [2]: Yes
Dye in Stomach [2]: +
Dye in Esophagus Upper [3]: Traces
Dye in Larynx [3]: Yes
Dye in Nasal Cavity [3]: Yes
Dye in Nose Skin [3]: Yes
Dye in Oral Cavity [3]: Yes
Dye in Esophagus Upper [4]: Traces
Dye in Larynx [4]: Yes
Dye in Nasal Cavity [4]: Yes
Dye in Nose Skin [4]: Yes
Dye in Oral Cavity [4]: Yes
Dye in Trachea Upper [4]: Traces
Dye in Larynx [5]: Yes
Dye in Nasal Cavity [5]: Yes
Dye in Nose Skin [5]: Yes
Dye in Oral Cavity [5]: Yes
Dye in Esophagus Lower [6]: Yes/Yes
Dye in Esophagus Upper [6]: Yes/Yes
Dye in Larynx [6]: Yes
Dye in Lung [6]: + and Traces
Dye in Nasal Cavity [6]: Yes
Dye in Nose Skin [6]: Yes
Dye in Stomach [6]: +
Dye in Trachea Lower [6]: Yes/Yes
Dye in Trachea Upper [6]: Yes/Yes
Dye in Esophagus Lower [7]: Yes/Yes
Dye in Esophagus Upper [7]: Yes/Yes
Dye in Intestine [7]: Yes
Dye in Larynx [7]: Yes
Dye in Lung [7]: +
Dye in Nasal Cavity [7]: Yes
Dye in Nose Skin [7]: Yes
Dye in Oral Cavity [7]: Yes
Dye in Stomach [7]: +
Dye in Trachea Lower [7]: Yes/Yes
Dye in Trachea Upper [7]: Yes/Yes
Dye in Esophagus Lower [8]: Yes/Yes
Dye in Esophagus Upper [8]: Yes/Yes
Dye in Larynx [8]: Yes
Dye in Nasal Cavity [8]: Yes
Dye in Nose Skin [8]: Yes
Dye in Oral Cavity [8]: Yes
Dye in Stomach [8]: ++
Dye in Esophagus Lower [9]: Traces
Dye in Esophagus Upper [9]: Traces/
Dye in Intestine [9]: Yes
Dye in Larynx [9]: Yes
Dye in Nasal Cavity [9]: Yes
Dye in Nose Skin [9]: Yes
Dye in Oral Cavity [9]: Yes
Dye in Stomach [9]: ++ and +
Dye in Esophagus Lower [10]: Yes/Yes
Dye in Esophagus Upper [10]: Yes/Yes
Dye in Larynx [10]: Yes
Dye in Nasal Cavity [10]: Yes
Dye in Nose Skin [10]: Yes
Dye in Oral Cavity [10]: Yes
Dye in Stomach [10]: ++
Dye in Trachea Lower [10]: Yes/Yes; also recorded: Traces
Dye in Trachea Upper [10]: Yes/Yes and Yes/
Dye in Esophagus Lower [11]: Yes/Yes
Dye in Esophagus Upper [11]: Yes/Yes
Dye in Larynx [11]: Yes
Dye in Lung [11]: + and ++
Dye in Nasal Cavity [11]: Yes
Dye in Nose Skin [11]: Yes
Dye in Oral Cavity [11]: Yes
Dye in Stomach [11]: +
Dye in Trachea Lower [11]: Yes/Yes
Dye in Trachea Upper [11]: Yes/Yes
Dye in Esophagus Lower [12]: Yes/Yes
Dye in Esophagus Upper [12]: Yes/Yes
Dye in Larynx [12]: Yes
Dye in Nasal Cavity [12]: Yes
Dye in Nose Skin [12]: Yes
Dye in Oral Cavity [12]: Yes
Dye in Stomach [12]: +
Dye retention in nasal passages and sinuses by position (mice, prone versus supine position): the converse is true for mice
Dye retention in nasal passages and sinuses by alertness (mouse, alert versus anesthetized): an anesthetized state is preferred
Dye reaching stomach and esophagus (optimal divided dose conditions for the mouse (Table 9)): essentially no dye reached the stomach and very little dye reached the esophagus
Dye retention in nasal passages and sinus cavities (series of low doses versus a single larger dose): more material can be retained in the nasal passages and sinus cavities than when a single larger dose is used
Dye retention in nasal passages and sinuses versus loss (when a lower dose is used): more dye is retained in the nasal passages and sinuses and less dye is lost to the esophagus, stomach, intestines and lungs
